Laboratory results from patent US20230312587A1, “PTERIDINONE COMPOUNDS AND USES THEREOF” (Vertex Pharmaceutical Incorporated, priority 2018, published 2023).
pIC50: −log10 of the molar value.

The compounds below were run on β-catenin-TCF-mediated reporter transcription activity in Colo 205 cells (assay: Colo 205 reporter assay (TCF/LEF luciferase)). Conditions: Homo sapiens, COLO 205, 5 h, Colo 205 TCF/LEF luciferase reporter, five hours after addition of compound; read-out: TCF reporter Colo205 IC50.
Type: cell-based
Outline: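 Luciferase signal from a TCF/LEF-driven reporter, stably integrated in Colo 205 colon cancer cells, was measured 5 h after compound addition.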

| pIC50 | SMILES |
| --- | --- |
| 5.30 to 6.00 | Cc1nc(NC2CN(C(=O)C3CCC(F)(F)CC3)C2)nc2c1NC(=O)[C@H](C(C)C)N2C [Compound 543, (S)-2-((1-(4,4-difluorocyclohexane-1-carbonyl)azetidin-3-yl)amino)-7-isopropyl-4,8-dimethyl-7,8-dihydropteridin-6(5H)-one] |
| > 6.52 | Cc1nc(NC2CN(C(=O)Cc3cc(F)c(F)c(F)c3)C2)nc2c1NC(=O)[C@H](C(C)C)N2C [Compound 544, (S)-7-isopropyl-4,8-dimethyl-2-((1-(2-(3,4,5-trifluorophenyl)acetyl)azetidin-3-yl)amino)-7,8-dihydropteridin-6(5H)-one] |
| ≤ 5.30 | Cc1nc(N[C@H]2CCc3nn(Cc4ccc(C(F)(F)F)nc4)cc32)nc2c1NC(=O)[C@H](C)N2C [Compound 546, (7S)-4,7,8-trimethyl-2-(((S)-2-((6-(trifluoromethyl)pyridin-3-yl)methyl)-2,4,5,6-tetrahydrocyclopenta[c]pyrazol-4-yl)amino)-7,8-dihydropteridin-6(5H)-one] |
| 5.30 to 6.00 | Cc1nc(N[C@@H]2CCc3nn(Cc4ccc(C(F)(F)F)nc4)cc32)nc2c1NC(=O)[C@H](C)N2C [Compound 547, (7S)-4,7,8-trimethyl-2-(((R)-2-((6-(trifluoromethyl)pyridin-3-yl)methyl)-2,4,5,6-tetrahydrocyclopenta[c]pyrazol-4-yl)amino)-7,8-dihydropteridin-6(5H)-one] |
| 6.00 to 6.52 | Cc1nc(NC2CN(C(=O)c3ccc(F)cc3)C2)nc2c1NC(=O)[C@H](C(C)C)N2C [Compound 548, (S)-2-((1-(4-fluorobenzoyl)azetidin-3-yl)amino)-7-isopropyl-4,8-dimethyl-7,8-dihydropteridin-6(5H)-one] |
| > 6.52 | Cc1nc(NCc2cnn(Cc3ccc(Cl)nc3)c2)nc2c1NC(=O)[C@H](CC(C)C)N2C [Compound 550, (S)-2-(((1-((6-chloropyridin-3-yl)methyl)-1H-pyrazol-4-yl)methyl)amino)-7-isobutyl-4,8-dimethyl-7,8-dihydropteridin-6(5H)-one] |
| ≤ 5.30 | Cc1nc(N[C@H]2C[C@@H](Nc3cc(C(F)(F)F)ncn3)C2)nc2c1NC(=O)[C@H](C)N2C [Compound 552, (S)-4,7,8-trimethyl-2-((cis-3-((6-(trifluoromethyl)pyrimidin-4-yl)amino)cyclobutyl)amino)-7,8-dihydropteridin-6(5H)-one] |
| 5.30 to 6.00 | Cc1nc(N[C@H]2C[C@H](NC(=O)Cn3ccc(C(F)(F)F)n3)C2)nc2c1NC(=O)[C@H](C(C)C)N2C [Compound 554, N-(trans-3-(((S)-7-isopropyl-4,8-dimethyl-6-oxo-5,6,7,8-tetrahydropteridin-2-yl)amino)cyclobutyl)-2-(3-(trifluoromethyl)-1H-pyrazol-1-yl)acetamide] |
| 5.30 to 6.00 | Cc1nc(N[C@H]2C[C@H](Nc3ccc(C(F)(F)F)nn3)C2)nc2c1NC(=O)[C@H](C(C)C)N2C [Compound 555, (S)-7-isopropyl-4,8-dimethyl-2-((trans-3-((6-(trifluoromethyl)pyridazin-3-yl)amino)cyclobutyl)amino)-7,8-dihydropteridin-6(5H)-one] |
| 5.30 to 6.00 | Cc1nc(N[C@H]2C[C@H](Nc3cnc(C(F)(F)F)cn3)C2)nc2c1NC(=O)[C@H](C(C)C)N2C [Compound 558, (S)-7-isopropyl-4,8-dimethyl-2-((trans-3-((5-(trifluoromethyl)pyrazin-2-yl)amino)cyclobutyl)amino)-7,8-dihydropteridin-6(5H)-one] |
| 5.30 to 6.00 | Cc1nc(N[C@H]2C[C@@H](NC(=O)Cc3ccc(C(F)(F)F)nc3)C2)nc2c1NC(=O)[C@H](C(C)C)N2C [Compound 559, N-(cis-3-(((S)-7-isopropyl-4,8-dimethyl-6-oxo-5,6,7,8-tetrahydropteridin-2-yl)amino)cyclobutyl)-2-(6-(trifluoromethyl)pyridin-3-yl)acetamide] |
| ≤ 5.30 | Cc1nc(N[C@H]2C[C@H](NC(=O)Cc3ccc(C(F)(F)F)nc3)C2)nc2c1NC(=O)[C@H](C(C)C)N2C [Compound 560, N-(trans-3-(((S)-7-isopropyl-4,8-dimethyl-6-oxo-5,6,7,8-tetrahydropteridin-2-yl)amino)cyclobutyl)-2-(6-(trifluoromethyl)pyridin-3-yl)acetamide] |
| > 6.52 | Cc1nc(N[C@H]2C[C@@H](Nc3cc(C(F)(F)F)ccn3)C2)nc2c1NC(=O)[C@H](C(C)C)N2C [Compound 561, (S)-7-isopropyl-4,8-dimethyl-2-((cis-3-((4-(trifluoromethyl)pyridin-2-yl)amino)cyclobutyl)amino)-7,8-dihydropteridin-6(5H)-one] |
| 6.00 to 6.52 | Cc1nc(N[C@H]2C[C@@H](Nc3ccc(C(F)(F)F)cn3)C2)nc2c1NC(=O)[C@H](C)N2C [Compound 562, (S)-4,7,8-trimethyl-2-((cis-3-((5-(trifluoromethyl)pyridin-2-yl)amino)cyclobutyl)amino)-7,8-dihydropteridin-6(5H)-one] |
| > 6.52 | Cc1nc(NCc2cnn(Cc3ccc(C(F)(F)F)nc3)c2)nc2c1NC(=O)[C@H](CC(C)C)N2C [Compound 563, (S)-7-isobutyl-4,8-dimethyl-2-(((1-((6-(trifluoromethyl)pyridin-3-yl)methyl)-1H-pyrazol-4-yl)methyl)amino)-7,8-dihydropteridin-6(5H)-one] |
| 5.30 to 6.00 | Cc1nc(NC2CN(C(=O)Nc3cc(F)c(F)c(F)c3)C2)nc2c1NC(=O)[C@H](C(C)C)N2C [Compound 564, (7S)-3-((7-isopropyl-4,8-dimethyl-6-oxo-5,6,7,8-tetrahydropteridin-2-yl)amino)-N-(3,4,5-trifluorophenyl)azetidine-1-carboxamide] |
| > 6.52 | Cc1nc(NCc2cnn(Cc3ccc(Cl)nc3)c2)nc2c1NC(=O)[C@H](C1CCC1)N2C [Compound 566, (7S)-2-(((1-((6-chloropyridin-3-yl)methyl)-1H-pyrazol-4-yl)methyl)amino)-7-cyclobutyl-4,8-dimethyl-7,8-dihydropteridin-6(5H)-one] |
| > 6.52 | Cc1nc(NCc2cnn(Cc3ccc(C(F)(F)F)nc3)c2)nc2c1NC(=O)[C@H](C1CCC1)N2C [Compound 567, (7S)-7-cyclobutyl-4,8-dimethyl-2-(((1-((6-(trifluoromethyl)pyridin-3-yl)methyl)-1H-pyrazol-4-yl)methyl)amino)-7,8-dihydropteridin-6(5H)-one] |
| > 6.52 | CO[C@H](C)[C@H]1C(=O)Nc2c(C)nc(NC3CN(C(=O)c4cc(F)c(F)c(F)c4)C3)nc2N1C [Compound 568, (S)-7-((R)-1-methoxyethyl)-4,8-dimethyl-2-((1-(3,4,5-trifluorobenzoyl)azetidin-3-yl)amino)-7,8-dihydropteridin-6(5H)-one] |
| 5.30 to 6.00 | Cc1nc(N[C@H]2C[C@@H](Nc3nc(C(F)(F)F)nn3C)C2)nc2c1NC(=O)[C@H](C(C)C)N2C [Compound 569, (S)-7-isopropyl-4,8-dimethyl-2-((cis-3-((1-methyl-3-(trifluoromethyl)-1H-1,2,4-triazol-5-yl)amino)cyclobutyl)amino)-7,8-dihydropteridin-6(5H)-one] |
| > 6.52 | Cc1nc(N[C@H]2C[C@@H](COc3ccc(Cl)nc3)C2)nc2c1NC(=O)[C@H](C(C)C)N2C [Compound 570, (S)-2-((cis-3-(((6-chloropyridin-3-yl)oxy)methyl)cyclobutyl)amino)-7-isopropyl-4,8-dimethyl-7,8-dihydropteridin-6(5H)-one] |
| 6.00 to 6.52 | Cc1ccc(OC[C@H]2C[C@@H](Nc3nc(C)c4c(n3)N(C)[C@@H](C(C)C)C(=O)N4)C2)cn1 [Compound 571, (S)-7-isopropyl-4,8-dimethyl-2-((cis-3-(((6-methylpyridin-3-yl)oxy)methyl)cyclobutyl)amino)-7,8-dihydropteridin-6(5H)-one] |
| > 6.52 | Cc1nc(N[C@H]2C[C@@H](COc3ccc(C#N)nc3)C2)nc2c1NC(=O)[C@H](C(C)C)N2C [Compound 572, 5-((cis-3-(((S)-7-isopropyl-4,8-dimethyl-6-oxo-5,6,7,8-tetrahydropteridin-2-yl)amino)cyclobutyl)methoxy)picolinonitrile] |
| > 6.52 | COc1ccc(OC[C@H]2C[C@@H](Nc3nc(C)c4c(n3)N(C)[C@@H](C(C)C)C(=O)N4)C2)cn1 [Compound 573, (S)-7-isopropyl-2-((cis-3-(((6-methoxypyridin-3-yl)oxy)methyl)cyclobutyl)amino)-4,8-dimethyl-7,8-dihydropteridin-6(5H)-one] |
| > 6.52 | Cc1nc(N[C@H]2C[C@@H](COc3ccc(F)nc3)C2)nc2c1NC(=O)[C@H](C(C)C)N2C [Compound 574, (S)-2-((cis-3-(((6-fluoropyridin-3-yl)oxy)methyl)cyclobutyl)amino)-7-isopropyl-4,8-dimethyl-7,8-dihydropteridin-6(5H)-one] |
| > 6.52 | Cc1nc(N[C@H]2C[C@@H](COc3cnn(C)c3C(F)(F)F)C2)nc2c1NC(=O)[C@H](C(C)C)N2C [Compound 575, (S)-7-isopropyl-4,8-dimethyl-2-((cis-3-(((1-methyl-5-(trifluoromethyl)-1H-pyrazol-4-yl)oxy)methyl)cyclobutyl)amino)-7,8-dihydropteridin-6(5H)-one] |
| > 6.52 | Cc1nc(N[C@H]2C[C@@H](Nc3ccc(OC(F)(F)F)cn3)C2)nc2c1NC(=O)[C@H](C(C)C)N2C [Compound 576, (S)-7-isopropyl-4,8-dimethyl-2-((cis-3-((5-(trifluoromethoxy)pyridin-2-yl)amino)cyclobutyl)amino)-7,8-dihydropteridin-6(5H)-one] |
| 6.00 to 6.52 | Cc1nc(N[C@H]2C[C@@H](Nc3ccc(OC(F)(F)F)cn3)C2)nc2c1NC(=O)[C@H](C)N2C [Compound 577, (S)-4,7,8-trimethyl-2-((cis-3-((5-(trifluoromethoxy)pyridin-2-yl)amino)cyclobutyl)amino)-7,8-dihydropteridin-6(5H)-one] |
| 5.30 to 6.00 | Cc1nc(N[C@H]2C[C@H](Nc3cnc(C(F)(F)F)cn3)C2)nc2c1NC(=O)[C@H](C)N2C [Compound 579, (S)-4,7,8-trimethyl-2-((trans-3-((5-(trifluoromethyl)pyrazin-2-yl)amino)cyclobutyl)amino)-7,8-dihydropteridin-6(5H)-one] |
